Eight molecules from ChEMBL document CHEMBL1201862, “PubChem BioAssay data set” (2004) can be followed below.

Test systems include SNB-75; HCT-15; HCT-116; Malme-3M; LXFL 529; NCI-H522; NCI-H460; OVCAR-5; DMS-273; UO-31; M19-MEL; A498; HT-29; CAKI-1; UACC-257; SW-620; M14; HOP-62; IGROV-1; T47D.
Common to all, as to assay: NCI tumour cell line growth inhibition, 48 h

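Cultured in 96-well plates, cells were exposed to test compound for 48 hours across five concentrations. GI50 = concentration required for 50% inhibition of growth.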 Calls of active or inactive are those of the source. Rule as the data show it: active = GI50 up to about 1.1 µM and inactive = higher.

With `NCc1cccc(O)c1O`, the GI50 in the experiment with SNB-75 was > 100 µM (inactive); in the experiment on HCT-15, over 100 µM; in the experiment on HCT-116, 79.8 µM (inactive); with Malme-3M, > 100 µM (inactive); in the experiment on LXFL 529, > 100 µM (inactive); in the experiment with NCI-H522, > 100 µM (inactive). Also, the GI50 in the experiment on NCI-H460 was > 100 µM (inactive); in the experiment on OVCAR-5, > 100 µM (inactive); with DMS-273, > 100 µM (inactive); in the experiment on UO-31, > 100 µM (inactive); with M19-MEL, 48.9 µM (inactive); in the experiment on A498, > 100 µM (inactive). The GI50 with HT-29, in the experiment on CAKI-1, with UACC-257, in the experiment on SW-620, with M14 and with HOP-62 was > 100 µM (inactive) in each case.
Turning to `CCCCNC(=O)OCC(COc1ccccc1OC)OC(=O)NCCCC` (stereo unspecified), the GI50 with SNB-75 was 96.6 µM (inactive); with HCT-15, over 100 µM; with HCT-116, > 100 µM (inactive); with Malme-3M, > 100 µM (inactive); in the experiment on LXFL 529 it was > 100 µM (inactive); in the experiment with NCI-H522, 45.4 µM (inactive). Besides, the GI50 was > 100 µM (inactive) in the experiment on NCI-H460; > 100 µM (inactive) with DMS-273; 63.8 µM (inactive) in the experiment with UO-31; > 100 µM (inactive) in the experiment on M19-MEL; > 100 µM (inactive) with A498; > 100 µM (inactive) in the experiment on HT-29. Moreover, the GI50 with IGROV-1, with CAKI-1, in the experiment on UACC-257, in the experiment on SW-620, with M14 and in the experiment on HOP-62 was > 100 µM (inactive) in each case.
Consider `CCOC(=O)NN1C(=O)C(=P(c2ccccc2)(c2ccccc2)c2ccccc2)C(C(=O)OC)=C1C`, for which the GI50 in the experiment on SNB-75 is > 100 µM (inactive); in the experiment with HCT-15 it was over 100 µM; in the experiment on HCT-116, > 100 µM (inactive); in the experiment on Malme-3M, > 100 µM (inactive); in the experiment on LXFL 529, > 100 µM (inactive); with NCI-H522 it was > 100 µM (inactive). The GI50 with NCI-H460, with OVCAR-5, in the experiment on DMS-273, in the experiment with UO-31, in the experiment with M19-MEL and in the experiment with A498 was > 100 µM (inactive) each time. Moreover, the GI50 in the experiment with HT-29, with IGROV-1, with CAKI-1, in the experiment on UACC-257, with SW-620 and in the experiment with M14 was > 100 µM (inactive) throughout. For the same molecule, in the experiment on HOP-62, the GI50 is > 100 µM (inactive).
As for `CCCCCCCCCCOC(=O)c1cc[n+](C)cc1`, the GI50 with SNB-75 was 19.3 µM (inactive); with HCT-15, 15.9 µM; in the experiment with HCT-116, 18.3 µM (inactive); with Malme-3M, 17.1 µM (inactive); in the experiment on LXFL 529 it was 16.3 µM (inactive); in the experiment with NCI-H522, 16.1 µM (inactive). The GI50 in the experiment with NCI-H460 was 21 µM (inactive); with OVCAR-5, 13.6 µM (inactive); in the experiment with DMS-273, 17.3 µM (inactive); with UO-31 it was 16.5 µM (inactive); with M19-MEL it was 17.8 µM (inactive); in the experiment on A498, 15.6 µM (inactive). Further, the GI50 in the experiment with HT-29 is 16.7 µM (inactive); in the experiment on IGROV-1, 16.6 µM (inactive); in the experiment with CAKI-1, 16.6 µM (inactive); in the experiment with UACC-257, 19.8 µM (inactive); in the experiment on SW-620, 19.1 µM (inactive); in the experiment with M14, 18 µM (inactive). Moreover, in the experiment with HOP-62, the GI50 is 16.8 µM (inactive).
On to `Cc1cccc(NC(=O)/C=C/c2ccc(N(CCC#N)CCC#N)cc2C)c1`, for which the GI50 with SNB-75 is 54.5 µM (inactive); in the experiment with HCT-15, 29 µM; in the experiment on HCT-116, > 100 µM (inactive); with Malme-3M it was > 100 µM (inactive); in the experiment with LXFL 529 it was 23.4 µM (inactive); in the experiment on NCI-H522, > 100 µM (inactive). Further, the GI50 with NCI-H460 was > 100 µM (inactive); in the experiment on OVCAR-5, > 100 µM (inactive); with DMS-273, > 100 µM (inactive); in the experiment with UO-31, 24.5 µM (inactive); with M19-MEL it was > 100 µM (inactive); in the experiment on A498, > 100 µM (inactive). Further, the GI50 in the experiment with HT-29, in the experiment on IGROV-1, with CAKI-1, in the experiment on UACC-257, in the experiment with SW-620 and in the experiment on M14 was > 100 µM (inactive) throughout. Further, the GI50 with HOP-62 was > 100 µM (inactive).
On to `CCCCN(CCCC)C(=O)C(=O)CC(=O)/C=C/c1ccccc1`, for which the GI50 in the experiment on SNB-75 is > 100 µM (inactive); with HCT-15 it was over 100 µM; with HCT-116, > 100 µM (inactive); in the experiment with Malme-3M, > 100 µM (inactive); in the experiment with LXFL 529, > 100 µM (inactive); in the experiment with NCI-H522, > 100 µM (inactive). Also, the GI50 with NCI-H460, in the experiment with OVCAR-5, in the experiment with DMS-273, with UO-31, with M19-MEL and with A498 was > 100 µM (inactive) each time. Also, the GI50 in the experiment with HT-29, in the experiment on IGROV-1, with CAKI-1, in the experiment on UACC-257, in the experiment with SW-620 and with M14 was > 100 µM (inactive) in each case. Moreover, the GI50 with HOP-62 is > 100 µM (inactive).
Consider `CCCCCCCCCCCCCCCC(=O)OCC1OC(OC)C2NP(=O)(N(CCCl)CCCl)OC1C2O` (stereo unspecified), for which the GI50 in the experiment with SNB-75 is 2.91 µM (inactive); in the experiment with T47D, 2.73 µM (inactive); in the experiment with HCT-15 it was 3.14 µM; with HCT-116 it was 3.3 µM (inactive); in the experiment with Malme-3M, 14.1 µM (inactive); in the experiment on LXFL 529, 2.43 µM (inactive). Besides, the GI50 is 0.916 µM (active) in the experiment on NCI-H522; 0.54 µM (active) in the experiment with NCI-H460; 20.8 µM (inactive) with OVCAR-5; 0.152 µM (active) with DMS-273; 7.36 µM (inactive) with UO-31; 15.6 µM (inactive) in the experiment on M19-MEL. Further, the GI50 was 10.6 µM (inactive) in the experiment on A498; 17.1 µM (inactive) in the experiment with HT-29; 19 µM (inactive) in the experiment with IGROV-1; 0.752 µM (active) with CAKI-1; 12.1 µM (inactive) in the experiment on UACC-257; 2.22 µM (inactive) in the experiment with SW-620. Also, the values for the GI50 in the experiment with M14 and in the experiment with HOP-62 were 4.31 µM (inactive) and 1 µM (active), respectively.
`CC1(O)C(C)(O)C(C)(O)C1(C)O` (stereo unspecified): the GI50 in the experiment with SNB-75 was > 100 µM (inactive); in the experiment on HCT-15, over 100 µM; in the experiment with HCT-116, > 100 µM (inactive); in the experiment on Malme-3M, > 100 µM (inactive); in the experiment with LXFL 529, > 100 µM (inactive); in the experiment on NCI-H522, > 100 µM (inactive). In addition, the GI50 in the experiment with NCI-H460, in the experiment on OVCAR-5, in the experiment on DMS-273, in the experiment with UO-31, in the experiment with M19-MEL and in the experiment on A498 was > 100 µM (inactive) in each case. In addition, the GI50 in the experiment on HT-29, with IGROV-1, in the experiment with CAKI-1, in the experiment with UACC-257, in the experiment on SW-620 and in the experiment with M14 was > 100 µM (inactive) in each case. Further, the GI50 in the experiment on HOP-62 was > 100 µM (inactive).
